Test results reported in patent US7351728B2, “Oxazolyl-aryloxyacetic acid derivatives and their use as PPAR agonists” (Eli Lilly and Company, priority 2003, dated 2008).

How the values were obtained:
[1] = molecular target: T1, huPPARα (Homo sapiens, UniProt Q07869); test: DNA-dependent binding (ABCD binding), SPA, tritium-labeled PPARα agonist radioligand; details: displacement of tritium-labeled PPARα agonist
T1 sequence (Q07869 1-468): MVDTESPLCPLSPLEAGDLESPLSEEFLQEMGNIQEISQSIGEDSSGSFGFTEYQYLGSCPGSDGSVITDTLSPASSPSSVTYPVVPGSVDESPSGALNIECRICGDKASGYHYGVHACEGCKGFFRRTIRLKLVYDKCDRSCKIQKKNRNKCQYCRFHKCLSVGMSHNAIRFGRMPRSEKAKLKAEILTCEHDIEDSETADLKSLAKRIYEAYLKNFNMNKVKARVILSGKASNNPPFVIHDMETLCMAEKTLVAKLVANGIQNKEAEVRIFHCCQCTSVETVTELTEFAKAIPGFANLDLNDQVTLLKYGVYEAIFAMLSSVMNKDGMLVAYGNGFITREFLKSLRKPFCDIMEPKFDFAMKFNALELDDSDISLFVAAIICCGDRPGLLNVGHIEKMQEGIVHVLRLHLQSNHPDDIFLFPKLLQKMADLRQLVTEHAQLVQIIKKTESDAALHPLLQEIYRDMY
T1 sequence (P19793 1-462 partner): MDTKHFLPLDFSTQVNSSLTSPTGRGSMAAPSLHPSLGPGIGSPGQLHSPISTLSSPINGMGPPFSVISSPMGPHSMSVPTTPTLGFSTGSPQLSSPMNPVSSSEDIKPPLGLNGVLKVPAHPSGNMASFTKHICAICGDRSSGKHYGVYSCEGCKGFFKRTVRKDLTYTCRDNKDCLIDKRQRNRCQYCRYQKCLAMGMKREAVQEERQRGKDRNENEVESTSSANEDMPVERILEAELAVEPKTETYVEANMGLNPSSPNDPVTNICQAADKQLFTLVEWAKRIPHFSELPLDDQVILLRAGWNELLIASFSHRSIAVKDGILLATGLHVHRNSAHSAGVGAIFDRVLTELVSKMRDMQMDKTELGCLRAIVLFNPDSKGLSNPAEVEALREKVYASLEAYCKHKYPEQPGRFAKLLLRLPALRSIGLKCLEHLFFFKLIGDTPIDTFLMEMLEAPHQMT
Protocol: (§1) DNA-dependent binding (ABCD binding) was carried out using SPA technology with PPAR receptors. Tritium-labeled PPARα and PPARγ agonists were used as radioligands for generating displacement curves and IC50 values with compounds of the invention. Cotransfection assays were carried out in CV-1 cells. The reporter plasmid contained an acylCoA oxidase (AOX) PPRE and TK promoter upstream of the luciferase reporter cDNA. Appropriate PPARs and RXRα were constitutively expressed using plasmids containing the CMV promoter. […] In order to eliminate such interference, a GAL4 chimeric system was used in which the DNA binding domain of the transfected PPAR was replaced by that of GAL4, and the GAL4 response element was utilized in place of the AOX PPRE. Cotransfection efficacy was determined relative to PPARα agonist and PPARγ agonist reference molecules. Efficacies were determined by computer fit to a concentration-response curve, or in some cases at a single high concentration of agonist (10 μM). For binding or cotransfection studies with receptors other than PPARs, similar assays were carried out using appropriate ligands, receptors, reporter constructs, etc., for that particular receptor.
(§2) These studies were carried out to evaluate the ability of compounds of the invention to bind to and/or activate various nuclear transcription factors, particularly huPPARα (“hu” indicates “human”) and huPPARγ. These studies provide in vitro data concerning efficacy and selectivity of compounds of the invention. Furthermore, binding and cotransfection data for compounds of the invention were compared with corresponding data for marketed compounds that act on either huPPARα or huPPARγ.
(§3) Binding and cotransfection data for representative compounds of the invention are compared with corresponding data for reference compounds in Table II.

[2] = molecular target: T2, huPPARγ (Homo sapiens, UniProt P37231); test: DNA-dependent binding (ABCD binding), SPA, tritium-labeled PPARγ agonist radioligand; details: displacement of tritium-labeled PPARγ agonist
T2 sequence (P37231 1-505): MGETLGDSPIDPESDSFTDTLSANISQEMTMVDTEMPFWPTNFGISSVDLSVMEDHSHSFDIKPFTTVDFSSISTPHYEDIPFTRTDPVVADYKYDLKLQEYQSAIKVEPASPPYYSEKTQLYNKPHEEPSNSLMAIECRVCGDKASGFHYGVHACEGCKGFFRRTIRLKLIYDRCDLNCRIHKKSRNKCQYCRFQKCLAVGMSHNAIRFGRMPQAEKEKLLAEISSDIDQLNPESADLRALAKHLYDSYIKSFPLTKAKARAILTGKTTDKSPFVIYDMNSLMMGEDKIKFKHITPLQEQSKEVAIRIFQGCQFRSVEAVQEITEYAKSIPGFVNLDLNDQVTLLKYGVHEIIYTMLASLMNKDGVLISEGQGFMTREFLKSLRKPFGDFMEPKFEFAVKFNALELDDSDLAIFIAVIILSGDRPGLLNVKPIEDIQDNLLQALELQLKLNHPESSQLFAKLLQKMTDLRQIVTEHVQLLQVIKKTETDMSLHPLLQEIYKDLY
T2 sequence (P19793 1-462 partner): T1 sequence (P19793 1-462 partner)
Protocol: as §1, §2, §3

Row | Compound | IC50 [1] [µM] | IC50 [2] [µM]
1 | CCc1cc(OCCc2nc(-c3ccccc3)oc2C)ccc1OC(C)(C)C(=O)O [Example 30A, 2-{2-Ethyl-4-[2-(5-methyl-2-phenyloxazol-4-yl)ethoxy]phenoxy}2-methylpropionic acid] | 0.189 | 0.078
2 | Cc1cc(OCCc2nc(-c3ccccc3)oc2C)ccc1OC(C)(C)C(=O)O [Example 24, 2-Methyl-2-{2-methyl-4-[2-(5-methyl-2-phenyloxazol-4-yl)ethoxy]phenoxy}propionic acid] | 0.624 | 0.239
3 | CCCCc1cc(OC(C)(C)C(=O)O)ccc1OCCc1nc(-c2ccccc2)oc1C [Example 31F, 2-{3-Butyl-4-[2-(5-methyl-2-phenyloxazol-4-yl)ethoxy]phenoxy}-2-methylpropionic acid] | 0.03 | 0.01
4 | CCc1ccc(-c2nc(CCOc3ccc(OC(C)(C)C(=O)O)cc3)c(C)o2)cc1 [Example 13, 2-(4-{2-[2-(4-Ethylphenyl)-5-methyloxazol-4-yl]ethoxy}phenoxy)-2-methylpropionic acid] | 0.025 | 0.42
5 | CCCc1cc(OCCc2nc(-c3ccccc3)oc2C)ccc1OC(C)(C)C(=O)O [Example 26A, 2-Methyl-2-{4-[2-(5-methyl-2-phenyloxazol-4-yl)ethoxy]-2-propylphenoxy}propionic acid] | 0.079 | 0.102
6 | CCc1cccc(-c2nc(CCOc3ccc(OC(C)(C)C(=O)O)cc3)c(C)o2)c1 [Example 12, 2-(4-{2-[2-(3-Ethylphenyl)-5-methyloxazol-4-yl]ethoxy}phenoxy)-2-methylpropionic acid] | 0.031 | 0.219
7 | Cc1oc(-c2cccc(CCc3ccccc3)c2)nc1CCOc1ccc(OC(C)(C)C(=O)O)cc1 [Example 12A, 2-Methyl-2-(4-{2-[5-methyl-2-(3-phenethylphenyl)oxazol-4-yl]ethoxy}phenoxy)-propionic acid] | 0.233 | 0.102
8 | Cc1oc(-c2cccc(Br)c2)nc1CCOc1ccc(OC(C)(C)C(=O)O)cc1 [Example 9A, 2-(4-{2-[2-(3-Bromophenyl)-5-methyloxazol-4-yl]ethoxy}phenoxy)-2-methylpropionic acid] | 0.075 | 0.18
9 | Cc1oc(-c2ccccc2)nc1CCOc1ccc(OC(C)(C)C(=O)O)cc1 [Example 1, 2-Methyl-2-{4-[2-(5-methyl-2-phenyloxazol-4-yl)ethoxy]phenoxy}propionic acid] | 1.68 | 2.13
10 | CCCc1cc(OCCc2nc(-c3ccccc3)oc2C)ccc1OCC(=O)O [Example 26, {4-[2-(5-methyl-2-phenyl-oxazol-4-yl)ethoxy]-2-propylphenoxy}acetic acid] | 3.28 | 1.15
11 | Cc1oc(-c2ccccc2)nc1CCOc1ccc(OC(C)(C)C(=O)O)c(CCc2ccccc2)c1 [Example 30J, 2-Methyl-2-{4-[2-(5-methyl-2-phenyloxazol-4-yl)ethoxy]-2-phenethylphenoxy}propionic acid] | 0.082 | 0.083
12 | Cc1oc(-c2ccccc2)nc1CCOc1ccc(OC(C)(C)C(=O)O)c(CC(C)C)c1 [Example 30C, 2-{2-Isobutyl-4-[2-(5-methyl-2-phenyloxazol-4-yl)ethoxy]phenoxy}-2-methylpropionic acid] | 0.259 | 0.148
13 | Cc1oc(-c2ccccc2)nc1CCOc1ccc(OC(C)(C)C(=O)O)c(Cc2ccccc2)c1 [Example 32, 2-{2-Benzyl-4-[2-(5-methyl-2-phenyloxazol-4-yl)ethoxy]phenoxy}-2-methylpropionic acid] | 0.05 | 0.042
14 | Cc1oc(-c2ccc(OC3CCCCC3)cc2)nc1CCOc1ccc(OC(C)(C)C(=O)O)cc1 [Example 21, 2-(4-{2-[2-(4-Cyclohexyloxy-phenyl)-5-methyl-oxazol-4-yl]-ethoxy}-phenoxy)-2-methyl-propionic acid] | 0.401 | 0.627
15 | CCCc1cc(OC(C)(C)C(=O)O)ccc1OCCc1nc(-c2ccccc2)oc1C [Example 27A, 2-Methyl-2-{4-[2-(5-methyl-2-phenyloxazol-4-yl)ethoxy]-3-propylphenoxy}propionic acid] | 0.113 | 0.049
16 | Cc1oc(-c2ccccc2)nc1CCOc1ccc(OC(C)(C)C(=O)O)c2ccccc12 [Example 37, 2-Methyl-2-{4-[2-(5-methyl-2-phenyl-oxazol-4-yl)-ethoxy]-naphthalen-1-yloxy}-propionic acid] | 0.294 | 0.172
17 | Cc1oc(-c2ccccc2)nc1CCOc1ccc(OC(C)(C)C(=O)O)c2c1CCCC2 [Example 38, 2-Methyl-2-{4-[2-(5-methyl-2-phenyl-oxazol-4-yl)-ethoxy]-5,6,7,8-tetrahydro-naphthalen-1-yloxy}-propionic acid] | 0.254 | 0.081
